Assay results published in publication PMC10246557, “Kinetic and inhibition studies on human Jumonji-C (JmjC) domain-containing protein 5” (RSC Chemical Biology, 2023).
“And” between values parts separate entries of the source, which are not always exact repeats. Identical values can stand only once. Like-named read-outs stand apart in the source and are kept apart here.

Columns and labels:
human AspH = details: absence of 2OG, AspH 0.1 μM, 2OG derivative 330 μM, Fe(II) 50 μM, hFX-CP101–119 2.0 μM, cited from earlier work
human KDM4E [1] = target: T1, human KDM4E (Homo sapiens, UniProt B2RXH2); assay: KDM4E SPE-MS inhibition assay; type: biochemical; details: KDM4E 0.15 μM, peptide 10.0 μM, LAA 100 μM, FAS 10 μM, 2OG 10 μM
T1 sequence (B2RXH2 1-506): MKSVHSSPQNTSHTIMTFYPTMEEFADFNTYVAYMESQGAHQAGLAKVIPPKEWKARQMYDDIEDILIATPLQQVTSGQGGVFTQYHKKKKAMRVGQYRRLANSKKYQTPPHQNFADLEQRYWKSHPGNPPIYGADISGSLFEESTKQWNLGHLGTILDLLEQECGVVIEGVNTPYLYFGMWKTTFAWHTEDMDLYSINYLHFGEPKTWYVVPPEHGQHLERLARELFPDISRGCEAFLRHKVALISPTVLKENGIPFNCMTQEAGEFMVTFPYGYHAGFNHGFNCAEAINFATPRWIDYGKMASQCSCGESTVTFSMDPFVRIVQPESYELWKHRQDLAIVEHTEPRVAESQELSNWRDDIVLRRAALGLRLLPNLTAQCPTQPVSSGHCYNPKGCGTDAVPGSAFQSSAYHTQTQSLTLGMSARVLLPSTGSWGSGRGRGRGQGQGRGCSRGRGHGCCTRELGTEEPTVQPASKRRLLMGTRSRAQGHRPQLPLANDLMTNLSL
Experimental: KDM4E turnover and inhibition assays were performed as reported using recombinant human KDM4E and a histone 3 K9(me3) derivative (i.e. […](me3)STGGIA)[41] as substrate.[95] […]

human JMJD5 [2] = target: T2, human JMJD5 (Homo sapiens, UniProt Q8N371); assay: SPE-MS JMJD5 inhibition assay; type: biochemical; details: for IC50 / IC50 JMJD5: 2OG 2.0 μM, Fe(II) 2.0 μM, LAA 100 μM, RPS6_128–148 2.0 μM
T2 construct: made in house; host or cells: Escherichia coli BL21(DE3)
Experimental: Solutions of the small-molecules (100% DMSO) were dry dispensed across 384 well polypropylene V-bottom assay microplates (Greiner) in an approximately three-fold and 11-point dilution series (100 μM inhibitor top concentration; the final DMSO assay concentration was kept constant at 0.5%v/v) using an ECHO 550 acoustic dispenser (Labcyte). […] Each reaction was performed in technical duplicates in adjacent wells of the assay plates; additionally, assays were performed in two independent duplicates on different days using different inhibitor solutions.
The Enzyme Mixture (25 μL per well), containing 0.3 μM His6-thioredoxin-tagged JMJD5 in buffer (50 mM MOPS, pH 7.5), was dispensed across the inhibitor-containing 384-well plates with a multidrop dispenser (ThermoFischer Scientific) at 20 °C under an ambient atmosphere. The plates were subsequently centrifuged (1000 rpm, 5 s) and incubated for 15 min at 20 °C. […] The plates were centrifuged (1000 rpm, 5 s) and, after incubating for 30 min, the enzyme reaction was stopped by the addition of 10%v/v aqueous formic acid (5 μL per well). The plates were then centrifuged (1000 rpm, 30 s) and analyzed by MS.
Z′-Factors were calculated according to the cited literature using Microsoft Excel.[61]

human FIH [3] = details: absence of 2OG, FIH 0.15 μM, 2OG derivative 330 μM, Fe(II) 50 μM, HIF-1α788–822 5.0 μM, cited from earlier work
human JMJD5 [4] = target: T2, human JMJD5; assay: SPE-MS JMJD5 turnover and kinetic assay (RPS6_128–148 hydroxylation); type: biochemical; details: for JMJD5 (%): RPS6_128–148 hydroxylation with the compound as cosubstrate: absence of 2OG, JMJD5 0.15 μM, 2OG derivative 400 μM, Fe(II) 20 μM, RPS6_128–148 2.0 μM
Experimental: JMJD5 turnover assays for time course and kinetic experiments were performed in 96-well polypropylene assay plates (Greiner) with either […] total reaction volume using the concentrations given in the manuscript or ESI, ^† and JMJD5-catalysed substrate hydroxylation was directly monitored using SPE-MS. […] Assay samples were aspirated under vacuum for 0.6 s and loaded onto a C4 solid phase extraction (SPE) cartridge. After loading, the C4 SPE cartridge was washed with 0.1%v/v aqueous formic acid to remove non-volatile buffer salts (5.5 s, 1.5 mL min^−1). The peptide was eluted from the SPE cartridge with 0.1%v/v aqueous formic acid in 80/20v/v acetonitrile/water into the mass spectrometer (5.5 s, 1.5 mL min^−1) and the SPE cartridge re-equilibrated with 0.1%v/v aqueous formic acid (0.5 s, 1.5 mL min^−1). The mass spectrometer was operated using the MassHunter Workstation B.08.00 software (Agilent), the mass spectrometer parameters were: capillary voltage (4000 V), nozzle voltage (1000 V), fragmentor voltage (365 V), gas temperature (280 °C), gas flow (13 L min^−1), sheath gas temperature (350 °C), sheath gas flow (12 L min^−1). […] Data were exported into Microsoft Excel and used to calculate the % conversion of the hydroxylation reaction using the equation: % conversion = 100 × (integral product peptide)/(integral substrate peptide + integral product peptide).
parameters (continues on the following two pages). Maximum velocities (vapp ) and Michaelis constants (Kapp)
of JMJD5 were determined in independent triplicates, monitoring the JMJD5-catalyzed hydroxylation of the
SPE-MS, as described (Experimental Section).
20 °C). Measurement times were normalized to the first sample injection analyzed after the addition of JMJD5 to
shown as the mean of three independent runs (n = 3; mean ± standard deviation, SD).
hexahydrate (20 μM, (NH4)2Fe(SO4)2·6H2O); and (b) hydroxylation rates used to determine kinetic parameters of
(1 picture or pasted object on this page, not shown here)
Maximum velocities (vapp ) and
Michaelis constants (Kapp) of JMJD5 were determined in independent triplicates for (1R)-3-
(carboxycarbonyl)cyclopentane-1-carboxylic acid (14), monitoring the JMJD5-catalyzed hydroxylation of the
as described (Experimental Section).
pH 7.5, 20 °C). Measurement times were normalized to the first sample injection analyzed after the addition of
(§1) Data are shown as the mean of three independent runs (n = 3; mean ± SD).
to determine kinetic parameters of JMJD5 for 14.

human KDM4E [5] = target: T1, human KDM4E; assay: KDM4E SPE-MS turnover and kinetic assay (H3 K9(me3) peptide demethylation); type: biochemical; details: absence of 2OG, KDM4E 0.15 μM, 2OG derivative 330 μM, Fe(II) 50 μM, ARTAQTARK(me3)STGGIA 10.0 μM
Experimental: KDM4E turnover and inhibition assays were performed as reported using recombinant human KDM4E and a histone 3 K9(me3) derivative (i.e. […](me3)STGGIA)[41] as substrate.[95]
Supplementary Figure S3. Rates of KDM4E-catalyzed Nε-trimethyl lysine demethylations of a histone 3- […]
Maximum velocities (vapp ) and Michaelis […]
catalyzed Nε-trimethyl lysine demethylation of the histone 3 K9(me3)-derived peptide […]
(me3)STGGIA2 by SPE-MS as described;3 note that mono-, di-, and tri-demethylated product […]
buffer (50 mM MES, pH 7.0, 20 °C). Measurement times were normalized to the first sample injection analyzed […]
as §1
(a) Time course of the KDM4E-catalyzed Nε-trimethyl lysine demethylation reaction of the […]

human FIH [6] = test system: human FIH; parameters: method as in ref 10 (ESI); details: FIH 0.15 μM, HIF-1α788-822 5.0 μM, 2OG 10 μM; ref 10 (ESI); cited from earlier work
[7] = JMJD5 0.15 μM, read-out: IC50 JMJD5

T2 sequence (Q8N371 whole entry): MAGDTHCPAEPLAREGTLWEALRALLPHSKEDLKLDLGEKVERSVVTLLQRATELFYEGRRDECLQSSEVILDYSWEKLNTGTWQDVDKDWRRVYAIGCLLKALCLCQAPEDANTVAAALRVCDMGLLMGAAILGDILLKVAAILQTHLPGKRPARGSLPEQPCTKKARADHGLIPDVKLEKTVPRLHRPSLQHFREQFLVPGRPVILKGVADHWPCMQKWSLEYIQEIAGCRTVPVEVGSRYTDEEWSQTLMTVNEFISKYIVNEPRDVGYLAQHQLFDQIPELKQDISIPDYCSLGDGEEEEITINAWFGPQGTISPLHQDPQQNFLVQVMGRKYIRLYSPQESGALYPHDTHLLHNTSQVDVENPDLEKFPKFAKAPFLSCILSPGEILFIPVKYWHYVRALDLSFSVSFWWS

For “3-(4-methoxybenzyl)-2OG [2OG derivative 6]”, the “AspH (%): substrate hydroxylation with the compound as cosubstrate” value (“AspH (%): substrate hydroxylation” below) (human AspH) is listed as < 1%, the IC50 (human KDM4E [1]) is listed as > 50 µM and the IC50 (human JMJD5 [2]; [7]) is listed as > 50 µM. The “FIH (%): substrate hydroxylation with the compound as cosubstrate” value (“FIH (%): substrate hydroxylation” for short) (human FIH [3]) was < 1%, the “JMJD5 (%): RPS6_128–148 hydroxylation with the compound as cosubstrate” value (“JMJD5 (%): RPS6_128–148 hydroxylation” for short) (human JMJD5 [4]) was ~ 10% and the “KDM4E (%): substrate demethylation with the compound as cosubstrate” value (“KDM4E (%): substrate demethylation” below) (human KDM4E [5]) was ~ 5%.

For “3-(9,9-dimethyl-9H-fluoren-2-yl)methyl-2OG [2OG derivative 7]”, the “AspH (%): substrate hydroxylation” value (human AspH) is listed as < 1%, the IC50 (human JMJD5 [2]; [7]) is listed as > 50 µM and the “FIH (%): substrate hydroxylation” value (human FIH [3]) is listed as < 1%. For the same compound, the “JMJD5 (%): RPS6_128–148 hydroxylation” value (human JMJD5 [4]) was < 1% and the “KDM4E (%): substrate demethylation” value (human KDM4E [5]) was < 1%.

In the case of 3-ethyl-2OG [2OG derivative 2], the “AspH (%): substrate hydroxylation” value (human AspH) is given as < 1%, the IC50 (human KDM4E [1]) is given as > 50 µM and the IC50 (human JMJD5 [2]; [7]) is given as > 20 µM. For the same compound, the “FIH (%): substrate hydroxylation” value (human FIH [3]) was ~ 2%, the “JMJD5 (%): RPS6_128–148 hydroxylation” value (human JMJD5 [4]) was < 1% and the “KDM4E (%): substrate demethylation” value (human KDM4E [5]) was < 1%.

For “4-(2-naphthyl)methyl-2OG [2OG derivative 23]”, the “AspH (%): substrate hydroxylation” value (human AspH) is given as < 1%, the IC50 (human KDM4E [1]) is given as 6 to 7 µM and ~6.9 µM and the IC50 (human JMJD5 [2]; [7]) is given as > 50 µM. For the same compound, the “FIH (%): substrate hydroxylation” value (human FIH [3]) was < 1%, the IC50 (human FIH [6]) was 2.5 ± 0.1 µM and the “JMJD5 (%): RPS6_128–148 hydroxylation” value (human JMJD5 [4]) was < 1%. For the same compound, the “KDM4E (%): substrate demethylation” value (human KDM4E [5]) was < 1%.

For 4-propyl-2OG [2OG derivative 11], the “AspH (%): substrate hydroxylation” value (human AspH) is listed as < 1%, the IC50 (human KDM4E [1]) is listed as > 50 µM and the IC50 (human JMJD5 [2]; [7]) is listed as > 50 µM. For the same compound, the “FIH (%): substrate hydroxylation” value (human FIH [3]) was ~ 5%, the “JMJD5 (%): RPS6_128–148 hydroxylation” value (human JMJD5 [4]) was ~ 10% and the “KDM4E (%): substrate demethylation” value (human KDM4E [5]) was < 1%.

In the case of `O=C(O)C(=O)C1CC[C@@H](C(=O)O)C1` (mixture of isomers) [2OG derivative 14, (1R)-3-(carboxycarbonyl)cyclopentane-1-carboxylic acid], the “AspH (%): substrate hydroxylation” value (human AspH; listed as Entry 22) is given as ~ 15%, the IC50 (human KDM4E [1]) is given as 27.9 ± 3.5 µM and the “FIH (%): substrate hydroxylation” value (human FIH [3]; listed as Entry 22) is given as ~ 2%. The IC50 (human FIH [6]) was > 50 µM and the “KDM4E (%): substrate demethylation” value (human KDM4E [5]; listed as Entry 22) was < 1%.

In the case of `CC1(C)c2ccccc2-c2ccc(CC(CC(=O)O)C(=O)C(=O)O)cc21` (stereo not drawn) [Entry 7], the “AspH (%): substrate hydroxylation” value (human AspH) is given as < 1%, the IC50 (human KDM4E [1]) is given as 6 to 7 µM and ~6.1 µM and the “FIH (%): substrate hydroxylation” value (human FIH [3]) is given as < 1%. The “JMJD5 (%): RPS6_128–148 hydroxylation” value (human JMJD5 [4]) was < 1% and the “KDM4E (%): substrate demethylation” value (human KDM4E [5]) was < 1%.

In the case of `CC(CC(=O)C(=O)O)C(=O)O` (stereo not drawn) [Entry 8], the “AspH (%): substrate hydroxylation” value (human AspH) is listed as < 1%, the IC50 (human KDM4E [1]) is listed as 6 to 7 µM and ~6.6 µM and the “FIH (%): substrate hydroxylation” value (human FIH [3]) is listed as < 1%. The “JMJD5 (%): RPS6_128–148 hydroxylation” value (human JMJD5 [4]) was < 1%, the “JMJD5-catalyzed RPS6_128–148 hydroxylation, time course” value (human JMJD5 [4]; after 50 min, 10 μM cosubstrate, 0.15 μM JMJD5, 10 μM Fe(II), 2.0 μM RPS6_128–148) was ~30% and the “KDM4E (%): substrate demethylation” value (human KDM4E [5]) was < 1%.

In the case of `O=C(O)CCNc1cc(N2CCc3ccccc3CC2)nc(-c2ccccn2)n1` [GSK-J1, reference compound], the IC50 (human JMJD5 [2]; [7]) is reported as ~4.4 µM.

For `CN(C)CCCNC(=O)c1ccc(-c2cc(O)c3ncccc3c2)cc1` [ML324, reference compound], the “Hill coefficient of the JMJD5 inhibition curve” value (human JMJD5 [2]) was ≥ 2.

For `O=C(O)C(=O)N[C@H](Cc1ccccc1)C(=O)O` [NOFD, N-Oxalyl-D-phenylalanine, reference compound], the “IC50 JMJD5” value (human JMJD5 [2]; JMJD5 0.15 μM) was “does not inhibit JMJD5 in the concentration range tested”.

`O=C(O)CNC(=O)C(=O)O` [NOG, N-oxalylglycine, reference compound] showed an IC50 (human JMJD5 [2]; [7]) of ~0.2 µM.

For `CN(C)NC(=O)CCC(=O)O` [daminozide, reference compound], the IC50 (human JMJD5 [2]; IC50 JMJD5, JMJD5 0.15 μM) was > 100 µM.

With `O=c1c2ccccc2[se]n1-c1ccccc1` [ebselen, reference compound] the “Hill coefficient of the JMJD5 inhibition curve” value (human JMJD5 [2]) was ≥ 2 and the IC50 (human JMJD5 [2]; [7]) was ~0.7 µM.

In the case of `Cc1nc(C(=O)NCC(=O)O)c(O)c2ccc(Oc3ccccc3)cc12` [roxadustat, reference compound], the “IC50 JMJD5” value (human JMJD5 [2]; JMJD5 0.15 μM) is reported as “does not inhibit JMJD5 at substantial levels”.
